Source: patent US8815881B2 (Hoffmann-La Roche Inc., priority 2010, dated 2014)

Target: endogenous cellular BACE2 in the Ins1e rat cell line (Rattus norvegicus (Rat), UniProt Q6IE75)
Experiment: Assay for BACE inhibition by measuring cellular TMEM27 cleavage (ELISA of shed hTMEM27 from INS-TMEM27 cells)
Format: cell-based
Details: assay a): cellular TMEM27 cleavage, INS-TMEM27 cells (superscript a)
Summary of the method: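 INS1e-derived cells with doxycycline-inducible (TetOn) full-length human TMEM27 get inhibitor 2 h before 500 ng/ml doxycycline, then 46 h further culture at 37 °C. Shed TMEM27 in supernatant measured by sandwich ELISA (anti-extracellular-domain antibodies); EC50 from concentration-response curve fit.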

endogenous cellular BACE2 in the Ins1e rat cell line, sequence (Q6IE75 63-514): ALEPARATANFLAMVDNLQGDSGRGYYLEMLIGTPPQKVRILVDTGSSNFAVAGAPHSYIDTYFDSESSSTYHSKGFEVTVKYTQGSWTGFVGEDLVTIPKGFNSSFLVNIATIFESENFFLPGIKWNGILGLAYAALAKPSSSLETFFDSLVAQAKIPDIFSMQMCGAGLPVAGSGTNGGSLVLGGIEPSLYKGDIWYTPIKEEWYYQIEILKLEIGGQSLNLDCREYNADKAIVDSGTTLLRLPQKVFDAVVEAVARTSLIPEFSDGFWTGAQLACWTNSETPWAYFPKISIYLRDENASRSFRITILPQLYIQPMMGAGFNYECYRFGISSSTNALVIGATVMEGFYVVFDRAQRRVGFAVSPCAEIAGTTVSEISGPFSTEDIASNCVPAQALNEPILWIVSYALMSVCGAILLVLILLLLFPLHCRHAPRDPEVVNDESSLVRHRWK

Row | Compound | IC50 [nM]
1 | CC(Cc1ccc(F)cc1)Nc1ccc(F)c([C@@]2(C)N=C(N)N(C)C(=O)C2(C)C)c1 (stereo partly drawn) [Example 42, (S)-2-Amino-6-{2-fluoro-5-[2-(4-fluoro-phenyl)-1-methyl-ethylamino]-phenyl}-3,5,5,6-tetramethyl-5,6-dihydro-3H-pyrimidin-4-one] | 211
2 | Cc1ccccc1Nc1ccc(F)c([C@@]2(C)N=C(N)N(C)C(=O)C2(C)C)c1 [Example 55, (S)-2-Amino-6-(2-fluoro-5-(o-tolylamino)phenyl)-3,5,5,6-tetramethyl-5,6-dihydro-pyrimidin-4(3H)-one] | 115
3 | CN1C(=O)C(C)(C)[C@@](C)(c2cc(NC(=O)CC3CCCC3)ccc2F)N=C1N [Example 26, (S)—N-(3-(2-amino-1,4,5,5-tetramethyl-6-oxo-1,4,5,6-tetrahydropyrimidin-4-yl)-4-fluorophenyl)-2-cyclopentylacetamide] | 274
4 | CN1C(=O)C(C)(C)[C@@](C)(c2cc(NC(=O)C(C)(C)F)ccc2F)N=C1N [Example 16, (S)—N-(3-(2-Amino-1,4,5,5-tetramethyl-6-oxo-1,4,5,6-tetrahydropyrimidin-4-yl)-4-fluorophenyl)-2-fluoro-2-methylpropanamide] | 9
5 | CC(Nc1ccc(F)c([C@@]2(C)N=C(N)N(C)C(=O)C2(C)C)c1)c1ccccc1 (stereo partly drawn) [Example 38, (S)-2-Amino-6-[2-fluoro-5-(1-phenyl-ethylamino)-phenyl]-3,5,5,6-tetramethyl-5,6-dihydro-3H-pyrimidin-4-one] | 48
6 | CN1C(=O)C(C)(C)[C@@](C)(c2cc(NC3CCN(Cc4ccccc4)C3)ccc2F)N=C1N (stereo partly drawn) [Example 32, (6S)-2-Amino-6-(5-(1-benzylpyrrolidin-3-ylamino)-2-fluorophenyl)-3,5,5,6-tetramethyl-5,6-dihydropyrimidin-4(3H)-one] | 32
7 | CN1C(=O)C(C)(C)[C@@](C)(c2cc(NCC3(C)CC3(F)F)ccc2F)N=C1N (stereo partly drawn) [Example 68, (S)-2-Amino-6-{5-[(2,2-difluoro-1-methyl-cyclopropylmethyl)-amino]-2-fluoro-phenyl}-3,5,5,6-tetramethyl-5,6-dihydro-3H-pyrimidin-4-one] | 3
8 | CN1C(=O)C(C)(C)[C@@](C)(c2cc(NC(=O)C3CC3)ccc2F)N=C1N [Example 17, (S)—N-(3-(2-Amino-1,4,5,5-tetramethyl-6-oxo-1,4,5,6-tetrahydropyrimidin-4-yl)-4-fluorophenyl)cyclopropanecarboxamide] | 360
9 | CN1C(=O)C[C@@](C)(c2cccc(NC(=O)C3(C(F)(F)F)CC3)c2)N=C1N [Example 12, 1-Trifluoromethyl-cyclopropanecarboxylic acid [3-((S)-2-amino-1,4-dimethyl-6-oxo-1,4,5,6-tetrahydro-pyrimidin-4-yl)-phenyl]-amide] | 23
10 | CN1C(=O)C(C)(C)[C@@](C)(c2cc(NC(=O)C3(C(F)(F)F)CC3)ccc2F)N=C1N [Example 5, 1-Trifluoromethyl-cyclopropanecarboxylic acid [3-((S)-2-amino-1,4,5,5-tetramethyl-6-oxo-1,4,5,6-tetrahydro-pyrimidin-4-yl)-4-fluoro-phenyl]-amide] | 11
11 | COc1cccc(Nc2ccc(F)c([C@@]3(C)N=C(N)N(C)C(=O)C3(C)C)c2)c1 [Example 79, (S)-2-Amino-6-(2-fluoro-5-(3-methoxyphenylamino)phenyl)-3,5,5,6-tetramethyl-5,6-dihydropyrimidin-4(3H)-one] | 44
12 | CN1C(=O)C(C)(C)[C@@](C)(c2cc(NCC3(c4ccccc4)CC3)ccc2F)N=C1N [Example 53, (S)-2-Amino-6-{2-fluoro-5-[(1-phenyl-cyclopropylmethyl)-amino]-phenyl}-3,5,5,6-tetramethyl-5,6-dihydro-3H-pyrimidin-4-one] | 153
13 | CN1C(=O)C(C)(C)[C@@](C)(c2cc(Nc3ccnn3C)ccc2F)N=C1N [Example 36, (S)-2-Amino-6-[2-fluoro-5-(2-methyl-2H-pyrazol-3-ylamino)-phenyl]-3,5,5,6-tetramethyl-5,6-dihydro-3H-pyrimidin-4-one] | 535

The next lines start with the values.

Row | IC50 [nM] | Compound
14 | 2 | CN1C(=O)C(C)(C)[C@@](C)(c2cc(NC3CC(C)(C)c4ccccc43)ccc2F)N=C1N (stereo partly drawn) [Example 106, (6S)-2-Amino-6-(5-(3,3-dimethyl-2,3-dihydro-1H-inden-1-ylamino)-2-fluorophenyl)-3,5,5,6-tetramethyl-5,6-dihydropyrimidin-4(3H)-one]
15 | 54 | CN1C(=O)C(C)(C)[C@@](C)(c2cc(NC3COC3)ccc2F)N=C1N [Example 132, (S)-2-Amino-6-[2-fluoro-5-(oxetan-3-ylamino)-phenyl]-3,5,5,6-tetramethyl-5,6-dihydro-3H-pyrimidin-4-one]
16 | 12 | CC(CNc1ccc(F)c([C@@]2(C)N=C(N)N(C)C(=O)C2(C)C)c1)C(F)(F)F (stereo partly drawn) [Example 83, (S)-2-Amino-6-[2-fluoro-5-(3,3,3-trifluoro-2-methyl-propylamino)-phenyl]-3,5,5,6-tetramethyl-5,6-dihydro-3H-pyrimidin-4-one]
17 | 217 | COc1cc(F)c(F)cc1Nc1ccc(F)c([C@@]2(C)N=C(N)N(C)C(=O)C2(C)C)c1 [Example 102, (S)-2-Amino-6-[5-(4,5-difluoro-2-methoxy-phenylamino)-2-fluoro-phenyl]-3,5,5,6-tetramethyl-5,6-dihydro-3H-pyrimidin-4-one]
18 | 1140 | CN1C(=O)C(C)(C)[C@@](C)(c2cc(Nc3ccc(F)cc3)ccc2F)N=C1N [Example 89, (S)-2-Amino-6-[2-fluoro-5-(4-fluoro-phenylamino)-phenyl]-3,5,5,6-tetramethyl-5,6-dihydro-3H-pyrimidin-4-one]
19 | 467 | CN1C(=O)C(C)(C)[C@@](C)(c2cc(NCC3CCCOC3)ccc2F)N=C1N (stereo partly drawn) [Example 90, (S)-2-Amino-6-{2-fluoro-5-[(tetrahydro-pyran-3-ylmethyl)-amino]-phenyl}-3,5,5,6-tetramethyl-5,6-dihydro-3H-pyrimidin-4-one]
20 | 2160 | CN1C(=O)C(C)(C)[C@@](C)(c2cc(NC3CCC(CC(=O)O)C3(C)C)ccc2F)N=C1N (stereo partly drawn) [Example 116, 2-(3-(3-((S)-2-Amino-1,4,5,5-tetramethyl-6-oxo-1,4,5,6-tetrahydropyrimidin-4-yl)-4-fluorophenylamino)-2,2-dimethylcyclopentyl)acetic acid]
21 | 497 | CN1C(=O)C(C)(C)[C@@](C)(c2cc(NC(=O)C(O)(C(F)(F)F)C(F)(F)F)ccc2F)N=C1N [Example 148, (S)—N-(3-(2-amino-1,4,5,5-tetramethyl-6-oxo-1,4,5,6-tetrahydropyrimidin-4-yl)-4-fluorophenyl)-3,3,3-trifluoro-2-hydroxy-2-(trifluoromethyl)propanamide]
22 | 734 | CN1C(=O)C(C)(C)[C@@](C)(c2cc(NC(=O)C3(O)CC3)ccc2F)N=C1N [Example 134, 1-Hydroxy-cyclopropanecarboxylic acid [3-((S)-2-amino-1,4,5,5-tetramethyl-6-oxo-1,4,5,6-tetrahydro-pyrimidin-4-yl)-4-fluoro-phenyl]-amide]
23 | 119 | CN1C(=O)C(C)(C)[C@@](C)(c2cc(NCC3(C(F)(F)F)CC3)ccc2F)N=C1N [Example 87, (S)-2-Amino-6-{2-fluoro-5-[(1-trifluoromethyl-cyclopropylmethyl)-amino]-phenyl}-3,5,5,6-tetramethyl-5,6-dihydro-3H-pyrimidin-4-one]
